We go through three compounds from US20050086710A1, “Method for generating recombinant human platelets for identifying therapeutic target proteins” (priority 2002, published 2005).

The test system of assay [1] is modified platelets expressing GFP. Briefly: FACS measurement of platelet surface markers after activation, modified platelets expressing GFP. Format: cell-based, human. The conditions noted are these: gated for GFP, TRAP 25 μM or ADP 5 or 20 μM. The source says:
(§1) Modified (E1/E3-deficient) flag-tagged adenoviruses for novel transgenes were generated that for expressing a transgene and green fluorescence protein (GFP) under control of two independent CMV promoters in a bi-cistronic system (He T C, Zhou S, da Costa L T, Yu J, Kinzler K W, Vogelstein B. A simplified system for generating modified adenoviruses. Proc Natl Acad Sci USA. 1998; 95:2509-14, purchased from Q Biogene, Heidelberg, Germany). As a control, Ad-GFP without further transgene was used. Large virus stocks were prepared and purified by centrifugation via cesium chloride density gradients. Adenoviral titers were determined using plaque titration and GFP expression titration in […] cells. • 1) Megakaryocytes were harvested at day 8-11 after isolation using a wide sterile single-use pipette and spun down in a 15 mL Falcon-tube at 1650 rpm for 8 min. • 2) The supernatant was discarded and the pellet resuspended in Opimem (at 4×10^5 cells/300 μL). • 3) Adenovirus was added to each well of a 24 well-plate for infection (multiplicity of infection (MOI) of 400 plaque forming units per cell). • 4) Cells were added and mixed by shaking, incubated for 30 min at 37° C. at 5% CO2, then • 5) spun down at 1000 rpm, 20° C. for 10 min.
• 1) Platelets were harvested by centrifugation at 1800 rpm for 1¼ min at 20° C.; the supernatant was diluted 1:1 with platelet wash buffer (1×PBS (w/o CA^2+ Mg^+) with 0.1% sodium azide (pH 7.2+/−0.2)). • 2) They were filtered through a 0.2 μm filter prior to use, stored at 4° C. and spun down at 1800 rpm for 5 min. • 3) The supernatant was discarded. ≈1 mL was left in the tube and washed again with staining buffer (1×PBS (w/o CA^2+Mg^+) with 0.1% sodium azide and 2% fetal bovine serum (FBS) and stored at 4° C. • 4) The supernatant was completely discarded. • 5) The pellet was resuspended in platelet-staining-buffer ([…]). • 6) 20 μL of the activators thrombin receptor activating peptide (TRAP; 25 μM), ADP (5 or 20 μM) or thrombin (2 U/ml) were added. 35 μL of the fibrinogen receptor binding peptide RGD or its negative control, RED, were added where indicated. • 7) The mixture was incubated for 10 min. at room temperature in the dark. • 8) Antibodys were added directly (in a volume of 7 μL each except for LIBS-FITC at 3.5 μL) and incubated for 20-30 min. at room temperature in the dark. • 9) 500-600 μL platelet staining buffer was added. Then, the mixture was spun down for 5 min. at 1800 rpm (in a tabletop centrifuge). The supernatant was discarded, 300-400 μL staining-buffer were added. FACS measurements were done immediately.
For the following studies, antibodies against the following antigens were used:
The antibodies were coupled to the following fluorescence systems, where appropriate (either directly or via secondary antibodies) and measured by fluorescence-activated cell sorting (FACS):
Platelets which co-expressed the transgene GFP were gated for this marker by studying FITC fluorescence, and the same measurements were then exclusively related to this gate.

In assay [2] the test system is freshly isolated human platelets. Briefly: FACS measurement of platelet surface markers after activation, freshly isolated platelets. Format: cell-based. The arrangement: CD 41 (FACS) / CD 61 (FACS) / CD42b (FACS) / CD62P (FACS): unit not given here. The conditions noted are these: TRAP 25 μM or ADP 5 or 20 μM, 10 min. How it is done: Freshly drawn blood from human volunteers was transferred into a Falcon tube and spun down for 20 min. at 1080 rpm at 20° C. […] The mixture was spun down for 10 min. at 2100 rpm at 20° C. The pellet was resuspended in staining buffer (1×PBS (w/o CA^2+ Mg^+) with 0.1% sodium azide and 2% fetal bovine serum) in a volume of 40 μl. […] Then, the mixture was spun down for 5 min. at 1800 rpm (in a tabletop centrifuge). The supernatant was discarded, 300-400 μL staining-buffer were added. FACS measurements were done immediately. For the following studies, antibodies against the following antigens were used: [table] The antibodies were coupled to the following fluorescence systems, where appropriate (either directly or via secondary antibodies) and measured by fluorescence-activated cell sorting (FACS): […] Platelets which co-expressed the transgene GFP were gated for this marker by studying FITC fluorescence, and the same measurements were then exclusively related to this gate.

Assay [3] concerns megakaryocyte-derived platelets. The experiment in a line: FACS measurement of platelet surface markers after activation, megakaryocyte-derived platelets. In kind it is cell-based, human. The settings on record: TRAP 25 μM or ADP 5 or 20 μM, 10 min. The arrangement: unit not given here. The procedure: Then, the mixture was spun down for 5 min. at 1800 rpm (in a tabletop centrifuge). The supernatant was discarded, 300-400 μL staining-buffer were added. FACS measurements were done immediately. For the following studies, antibodies against the following antigens were used: [table] The antibodies were coupled to the following fluorescence systems, where appropriate (either directly or via secondary antibodies) and measured by fluorescence-activated cell sorting (FACS): [table] Platelets which co-expressed the transgene GFP were gated for this marker by studying FITC fluorescence, and the same measurements were then exclusively related to this gate.

Assay [4] concerns stem cell-derived platelets after infection with Ad-GFP. The experiment in a line: ELISA, release of β-thromboglobulin, platelets after infection with Ad-GFP. The conditions noted are these: thrombin vs basal. In kind it is cell-based.
Description: as §1, with “10 min. […]” for “10 min.”
Background: In an ELISA, binding on a coated surface is turned into a signal by an enzyme label.

The subject of assay [5] is stem cell-derived platelets. Briefly: ELISA, thrombin dependent release of β-thromboglobulin, stem cell-derived platelets. Format: cell-based. How it is done: (§2) ELISA Assays for β-thromboglobulin (Asserachrom β-TG, Roche Diagnostics, Mannheim, Germany) and platelet-derived growth factor (PDGF; PDGF-AB Immunoassay, Qiagen, Hilden, Germany) were performed according to the manufacturers' instructions. By using these assays, the thrombin dependent release of both mediators from platelets was assessed.

In assay [6] the test system is stem cell-derived platelets after infection with Ad-GFP. The experiment in a line: ELISA, release of PDGF, platelets after infection with Ad-GFP. In kind it is cell-based. The settings on record: thrombin vs basal.
Description: as §1, with “10 min. […]” for “10 min.”

Assay [7] concerns stem cell-derived platelets. The experiment in a line: ELISA, thrombin dependent release of PDGF, stem cell-derived platelets. In kind it is cell-based. The procedure:
as §2

The test system of assay [8] is freshly isolated platelets. The experiment in a line: ELISA, release of PDGF, freshly isolated platelets. Format: cell-based, human. The procedure:
(§3) Freshly drawn blood from human volunteers was transferred into a Falcon tube and spun down for 20 min. at 1080 rpm at 20° C. The supernatant yielded the PRP (platelet-rich-plasma) and was transferred to a new tube and diluted 1:4 with wash-buffer (1×PBS (w/o CA^2+ Mg^+) with 0.1% sodium azide, pH 7.2+/−0.2, filtered through a 0.2 μm filter prior to use and stored at 4° C.). The mixture was spun down for 10 min. at 2100 rpm at 20° C. The pellet was resuspended in staining buffer (1×PBS (w/o CA^2+ Mg^+) with 0.1% sodium azide and 2% fetal bovine serum) in a volume of 40 μl.
as §2

Assay [9] concerns freshly isolated platelets. The experiment in a line: ELISA, release of β-thromboglobulin, freshly isolated platelets. In kind it is cell-based, human. The settings on record: thrombin, amount not stated (basal 59±6). How it is done: as §3, §2

`Nc1ncnc2c1ncn2[C@@H]1O[C@H](COP(=O)(O)OP(=O)(O)O)[C@@H](O)[C@H]1O` [ADP]: in [1], the “CD 41 (FACS)” value amounted to 216 ± 18, the “CD42b (FACS)” value amounted to 95 ± 63, the “CD 61 (FACS)” value turned out to be 333 ± 78 and the “CD62P (FACS)” value was 314 ± 153. Also, in assay [1], the “PAC-1 (FACS)” value is reported as 198 ± 10. Besides, in [2], the “CD 41 (FACS)” value amounted to 92 ± 37, the “CD42b (FACS)” value is recorded as 58 ± 15, the “CD 61 (FACS)” value is 16 ± 6 and the “CD62P (FACS)” value is given as 75 ± 18. Moreover, in assay [2], the “PAC-1 (FACS)” value was 90 ± 26. Also, in [3], the “CD 41 (FACS)” value was 258 ± 24, the “CD42b (FACS)” value was found to be 46 ± 25, the “CD 61 (FACS)” value was determined as 76 ± 9.5 and the “CD62P (FACS)” value is 121 ± 61.
With thrombin, the “increase in βTG release” value in [4] is on record as “four-fold”. For the same compound, the “Release of β-thromboglobulin” value in [5] (0.2 U thrombin (basal 52±19)) is recorded as 219±11 U/ml; in assay [5] (2 U thrombin (basal 52±19)) it was 250±92 U/ml; in assay [9], 115±10 U/ml. In addition, the “increase of PDGF release” value in assay [6] came out at 123±7%. For the same compound, the “release of PDGF” value turned out to be 590 ± 22 pg/mL in assay [7] (0.2 U thrombin (basal 280±95)), 610 pg/mL in [7] (2 U thrombin (basal 280±95)), 566 ± 10 pg/mL in assay [8] (0.2 U thrombin (basal 214±11)) and 664 ± 12 pg/mL in [8] (1 U thrombin (basal 214±11)).
Consider “thrombin receptor activating peptide [TRAP]”, for which, in [1], the “CD 41 (FACS)” value was 213 ± 34, the “CD42b (FACS)” value is on record as 81 ± 29, the “CD 61 (FACS)” value came to 325 ± 73 and the “CD62P (FACS)” value stood at 299 ± 146. For the same compound, the “PAC-1 (FACS)” value in assay [1] amounted to 178 ± 41. Also, in assay [2], the “CD 41 (FACS)” value turned out to be 99 ± 25, the “CD42b (FACS)” value came out at 40 ± 2, the “CD 61 (FACS)” value was 19 ± 4.8 and the “CD62P (FACS)” value stood at 162 ± 50. The “PAC-1 (FACS)” value in [2] amounted to 122 ± 34. In addition, in assay [3], the “CD 41 (FACS)” value was found to be 248 ± 23, the “CD42b (FACS)” value was 75 ± 41, the “CD 61 (FACS)” value was 75 ± 14 and the “CD62P (FACS)” value is given as 138 ± 69.
